Measured values as given in patent US20250290074A1, “TARGETED TREATMENT OF SPLICEOPATHY-INDUCED NEUROLOGICAL DISORDERS” (Auttx, LLC, priority 2022, published 2025).
Strand notation (5' to 3'): a small letter for the sugar, then the base; units joined by * are phosphorothioate-linked, units joined directly phosphodiester-linked; [ ] holds rarer units or linkages, { } end groups; capitals alone tell only the bases. e = 2'-O-(2-methoxyethyl) (MOE); [5mC] = 5-methylcytosine

Experiments:
[1] = test system: human hnRNP L (hsHNRNP L) mRNA; experiment: 5-point dose response (DRC) of ASOs, hnRNP L mRNA by branched DNA assay in BE(2)-M17 cells; assay type: cell-based; conditions: 24 h; for max. upregulation [%] (MV normalized hsHNRNP L/hsGAPDH): Lipofectamine3000, highest 120 nM, four 4-fold dilutions, bDNA, negative controls set to 100%; for EC50: hsHNRNP L mRNA upregulation, XLfit
Text: Data were generated in biological quadruplicates. […] No significant decrease in hsGAPDH mRNA levels was observed.
Details and data are shown in Table 9A-9B, FIG. 24, and FIG. 25A-25E. In some cases, there was dose dependent hsHNRNP L on-target mRNA upregulation to varying degrees when cells were transfected with ASO compounds of interest.

hsHNRNP L mRNA = experiment: Time-course experiment, ASOs at 30 nM, hnRNP L mRNA by bDNA in BE(2)-M17 cells; assay type: cell-based, Homo sapiens; conditions: 30 nM ASO, mock controls set to 100%, incubations 24 h, 48 h, 72 h, time point not given
Protocol: Lipofectamine3000 (LF3000) was again used as the transfection agent. The transfection mixture was prepared identically on three plates. […] In this case, no outliers were removed. Data were generated in biological quadruplicates.
FIG. 26 includes a comparison of results from this study next to results from Example 7. Observing the results after 24 h incubation, similar data from the analysis in Example 7 were reproduced here.

Substance	max. upregulation [%] (MV normalized hsHNRNP L/hsGAPDH) [1]	EC50 [1] [nM]	MV normalized hsHNRNP L/hsGAPDH (hsHNRNP L mRNA) [%]
Skip-6A-4: ASO TACAGTCATAAATACAAGTCAC (SEQ ID NO: 53), fully 2′-MOE, 5′-methyl C, phosphorothioate; upstream intron (antisense eT*eA*e[5mC]*eA*eG*eT*e[5mC]*eA*eT*eA*eA*eA*eT*eA*e[5mC]*eA*eA*eG*eT*e[5mC]*eA*e[5mC]; listed as Homo sapiens)	24.0	18.9	26.9
Skip-6A-12: ASO TGAAAGATGGCGTCCCATCAAA (SEQ ID NO: 61), fully 2′-MOE, 5′-methyl C, phosphorothioate; exon 6A (antisense eT*eG*eA*eA*eA*eG*eA*eT*eG*eG*e[5mC]*eG*eT*e[5mC]*e[5mC]*e[5mC]*eA*eT*e[5mC]*eA*eA*eA; listed as Homo sapiens)	36.6	16.7	14.5
Skip-6A-11: ASO ATGGCGTCCCATCAAACATACA (SEQ ID NO: 60), fully 2′-MOE, 5′-methyl C, phosphorothioate; exon 6A (antisense eA*eT*eG*eG*e[5mC]*eG*eT*e[5mC]*e[5mC]*e[5mC]*eA*eT*e[5mC]*eA*eA*eA*e[5mC]*eA*eT*eA*e[5mC]*eA; listed as Homo sapiens)	47.8	7.93	38.3
Skip-6A-1: ASO GTACACATCCGCTACAATTTTT (SEQ ID NO: 50), fully 2′-MOE, 5′-methyl C, phosphorothioate; upstream intron of hnRNP L exon 6A (antisense eG*eT*eA*e[5mC]*eA*e[5mC]*eA*eT*e[5mC]*e[5mC]*eG*e[5mC]*eT*eA*e[5mC]*eA*eA*eT*eT*eT*eT*eT; listed as Homo sapiens)	9.1	15.2	13.0
Skip-6A-6: ASO TGCATCACATGGTTTTACAGTC (SEQ ID NO: 55), fully 2′-MOE, 5′-methyl C, phosphorothioate; upstream intron (antisense eT*eG*e[5mC]*eA*eT*e[5mC]*eA*e[5mC]*eA*eT*eG*eG*eT*eT*eT*eT*eA*e[5mC]*eA*eG*eT*e[5mC]; listed as Homo sapiens)	65.1	6.23	81.7
Skip-6A-18: ASO TACCATTGGACGCTTCAACAGT (SEQ ID NO: 67), fully 2′-MOE, 5′-methyl C, phosphorothioate; exon 6A (antisense eT*eA*e[5mC]*e[5mC]*eA*eT*eT*eG*eG*eA*e[5mC]*eG*e[5mC]*eT*eT*e[5mC]*eA*eA*e[5mC]*eA*eG*eT; listed as Homo sapiens)	47.3	9.1	42.7
Skip-6A-7: ASO GCGACCCTGCATCACATGGTTT (SEQ ID NO: 56), fully 2′-MOE, 5′-methyl C, phosphorothioate; upstream intron/exon (antisense eG*e[5mC]*eG*eA*e[5mC]*e[5mC]*e[5mC]*eT*eG*e[5mC]*eA*eT*e[5mC]*eA*e[5mC]*eA*eT*eG*eG*eT*eT*eT; listed as Homo sapiens)	51.2	8.91	59.3
Skip-6A-14: ASO TTAGCACAGTTCTGAAAGATGG (SEQ ID NO: 63), fully 2′-MOE, 5′-methyl C, phosphorothioate; exon 6A (antisense eT*eT*eA*eG*e[5mC]*eA*e[5mC]*eA*eG*eT*eT*e[5mC]*eT*eG*eA*eA*eA*eG*eA*eT*eG*eG; listed as Homo sapiens)	52.3	6.41	55.8
